Laboratory results published in patent US5977298A, “Calcitonin derivatives” (Kvowa Hakko Kogyo Co., Ltd., priority 1995, dated 1999).
Bridges are numbered along the chain shown (N, C = ends). Where no end group is shown, it is not given here. [ ]: non-standard residue; d: D form. Gla = N[C@@H](CC(C(=O)O)C(=O)O)C(=O)O; Hyp = O=C(O)[C@@H]1C[C@@H](O)CN1; βAla = NCCC(=O)O

Columns and labels:
male SD strain rats = test: Serum calcium content after intravenous administration to rats; assay type: in vivo, rat; settings: 60 minutes after administration; for Serum calcium Content: 0.5 ml i.v. tail vein, value ± standard error
Experimental: Four-weeks-old male SD strain rats (Clea Japan, Inc.) were fasted for 24 hours before the test and were offered in groups each consisting of 8 rats. Each rat of the control group was given 0.5 ml of physiological saline (Otsuka Pharmaceutical Co., Ltd.) containing 1% BSA (Sigma Chemical Co.) by intravenous administration through the tail vein. In the same manner, each rat of Compound 9-administered groups was given 0.5 ml of a solution of Compound 9 in physiological saline containing 1% BSA. Blood was collected from the right femoral artery of a rat 60 minutes after the administration and was centrifuged at 4° C. at 3000 rpm for 15 minutes to obtain a blood serum, and the serum calcium content was determined with calcium C-test WAKO (Wako Pure Chemical Industries, Ltd.). The results are expressed in terms of value ± standard error, and the difference was judged to be statistically significant at P <0.05 according to the Williams-Wilcoxon test.

[1] = tested on: Osteoclast-like multinucleated cells (osteoclasts); test: Calcitonin-like biological activity: bone resorption pit formation by osteoclasts on ivory pieces; assay type: cell-based, mouse; settings: 48 hours
Experimental: 1-1 Preparation of Osteoclasts
Osteoclast-like multinucleated cells which were derived by coculturing mouse osteoblasts and bone marrow cells on collagen gel according to the method described in Akatsu T. et al., J. Bone Miner. Res., 7, 1297-1306 (1992) were used as osteoclasts. That is, osteoblasts derived from mouse vault of skull (5×10^5 cells) were put in a 100 mm dish (IWAKI) collagen-coated with Cellmatrix Type I-A (Nitta Gelatin Co., Ltd.) and cultured for one day in a CO2 incubator (37° C., 5% CO2) [medium: αMEM+10% FCS (both by GIBCO Co., Ltd.)]. After the medium was removed, mouse bone marrow cells (6×10^6 cells) were put on the osteoblasts and 10^-8 M calcitriol (Wako Pure Chemical Industries, Ltd.) and 10^-7 M dexamethasone (Sigma Chemical Co.) were added thereto. TRAP-positive multinucleate cells (osteoclast-like cells) which were obtained 7 days after the inoculation of osteoblasts were used as osteoclasts.
1-2 Culturing of Osteoclasts on Ivory Pieces
After removal of the medium from the dish, and rinsing with PBS(-), a mixture of collagenase and dispase (collagenase: Wako Pure Chemical Industries, Ltd., dispase: Godo Shusei Co., Ltd.) was added thereto to suspend the cells. The cell suspension was put into a tube and centrifuged at 800 rpm for 5 minutes. After removal of the supernatant by suction, the cells were suspended again in αMEM and the suspension was put on ivory pieces (diameter: 4 mm, thickness: 20 μm) in 100 μl portions. The ivory pieces were left to stand in a CO2 incubator for 2 hours to attach the osteoclasts thereto, and then taken out and gently transferred to a 48-well plate (IWAKI) to which a medium containing a test compound had been added in advance to determine the bone resorption activity 48 hours later according to the method described below. The medium containing the test compound was prepared by adding the test compound dissolved in HEPES buffer to the medium described in 1-1 to give the final concentrations shown in Tables 2 and 3.
1-3 Determination of Bone Resorption Activity by Staining of Ivory Pieces and Measurement of Bone Resorption Pit Area
The ivory pieces taken out of the medium were put into a tube containing 0.1 N aqueous ammonia and subjected to sonication treatment with a sonicator for 20-30 seconds to remove the osteoclasts. After being washed with distilled water to remove ammonia, the ivory pieces were dipped in a hematoxylin-eosin staining solution to stain resorption pits. The bone resorption pit formation rate was calculated based on microphotographs of stained ivory pieces according to the following equation by the use of an image analyzer. [formula]
The bone resorption inhibitory activity of test compounds were calculated according to the following equation. [formula]
A; Bone resorption pit formation rate obtained using no test compound
B; Bone resorption pit formation rate obtained using a test compound

| Substance | Bone resorption inhibitory activity (% inhibition) ([1]; compound concentration 10^-6 M) [%] | further results |
| --- | --- | --- |
| Compound 9: SEQ ID NO:9; cyclic peptide Compound 16 condensed to the N-terminus of the Compound 25 peptide (GNWHGTAPDGLGSLTEVLAKLAEYPRTNTGSGTP-NH2; lactam (positions not given here); not fully specified (bridges); printed as ⌐GNWHGTAPDGLGSLTEVLAKLAEYPRTNTGSGTP┐— NH$_2$; also: cyclic peptide Compound 16 condensed at N-terminus) | 53 | Serum calcium Content (male SD strain rats; compound concentration 1 μg/ml): 10.41 ± 0.13 mg/dL; Serum calcium Content (male SD strain rats; compound concentration 10 μg/ml): 10.20 ± 0.16 mg/dL; Serum calcium Content (male SD strain rats; compound concentration 100 μg/ml, P < 0.01 vs control): 7.54 ± 0.29 mg/dL; serum calcium content compared with that of the control group (male SD strain rats; concentration of 100 μg/l (so in the source), 0.5 ml i.v.): significantly lowered |
| H-Val-Leu-Ala-Ala-Leu-Ala-Ala-Ala-Leu-Ala-Ala-Leu-Ala-Ala-Leu-Pro-Arg-Thr-Asn-Thr-Gly-Ser-Gly-Thr-Pro-NH2 (H-VLAALAAALAALAALPRTNTGSGTP-NH2) [Compound 19, linear calcitonin-like peptide, comparison for Compound 3, reference compound] | 6 |  |
| Compound 14: SEQ ID NO:14; cyclic peptide Compound 16 condensed to the N-terminus of the Compound 30 peptide (GNWHGTAPDGLGSLTEVLAKLAEYPKTNTGSGTP-NH2; lactam (positions not given here); not fully specified (bridges); printed as ⌐GNWHGTAPDGLGSLTEVLAKLAEYPKTNTGSGTP┐— NH$_2$; also: cyclic peptide Compound 16 condensed at N-terminus) | 40 |  |
| Compound 3: SEQ ID NO:3; cyclic peptide Compound 16 condensed to the N-terminus of the Compound 19 peptide (GNWHGTAPDVLAALAAALAALAALPRTNTGSGTP-NH2; lactam (positions not given here); not fully specified (bridges); printed as ⌐GNWHGTAPDVLAALAAALAALAALPRTNTGSGTP—NH$_2$) | 65 |  |
| Compound 5: SEQ ID NO:5; cyclic peptide Compound 16 condensed to the N-terminus of the Compound 21 peptide (GNWHGTAPDGLGSLTEVLAKLAAYPRTNTGSGTP-NH2; lactam (positions not given here); not fully specified (bridges); printed as ⌐GNWHGTAPDGLGSLTEVLAKLAAYPRTNTGSGTP—NH$_2$; also: cyclic peptide Compound 16 condensed at N-terminus) | 35 |  |
| Compound 4: SEQ ID NO:4; cyclic peptide Compound 16 condensed to the N-terminus of the Compound 20 peptide (GNWHGTAPDMLGTYTQDFNKFHTFPQTAIGVGAP-NH2; lactam (positions not given here); not fully specified (bridges); printed as ⌐GNWHGTAPDMLGTYTQDFNKFHTFPQTAIGVGAP—NH$_2$; also: cyclic peptide Compound 16 condensed at N-terminus) | 29 |  |
| H-LGKLSQELHKLQTYPRTNTGSGTP-NH2 [Compound 17, reference compound] |  | Bone resorption inhibitory activity (% inhibition) ([1]; compound concentration 10^-7 M): 0% |
| Compound 7: SEQ ID NO:7; cyclic peptide Compound 16 condensed to the N-terminus of the Compound 23 peptide (GNWHGTAPDGLGSLTEVLAKLAAY[Hyp]RTNTGSGT[Hyp]-NH2; lactam (positions not given here); not fully specified (bridges); also: cyclic peptide Compound 16 condensed at N-terminus) |  | Bone resorption inhibitory activity (% inhibition) ([1]; compound concentration 10^-8 M): 50% |
| Compound 2: SEQ ID NO:2; cyclic peptide Compound 16 condensed to the N-terminus of the Compound 18 peptide (GNWHGTAPDVLGKLSQELHKLQTYPRTNTGSGTP-NH2; lactam N-9) |  | Bone resorption inhibitory activity (% inhibition) ([1]; compound concentration 10^-8 M): 36% |
| Compound 13: SEQ ID NO:13; cyclic peptide Compound 16 condensed to the N-terminus of the Compound 29 peptide (GNWHGTAPDGLGSLTEVLAKLAEYP[dR]TNTGSGTP-NH2; lactam (positions not given here); not fully specified (bridges); printed as ⌐GNWHGTAPDGLGSLTEVLAKLAEYPrTNTGSGTP┐— NH$_2$; also: cyclic peptide Compound 16 condensed at N-terminus) | 35 |  |
| Compound 6: SEQ ID NO:6; cyclic peptide Compound 16 condensed to the N-terminus of the Compound 22 peptide (GNWHGTAPDGLGSLTEVLAKLAAYPRSQTGAGTP-NH2; lactam (positions not given here); not fully specified (bridges); printed as ⌐GNWHGTAPDGLGSLTEVLAKLAAYPRSQTGAGTP—NH$_2$; also: cyclic peptide Compound 16 condensed at N-terminus) | 29 |  |
| H-Val-Leu-Gly-Lys-Leu-Ser-Gln-Glu-Leu-His-Lys-Leu-Gln-Thr-Tyr-Pro-Arg-Thr-Asn-Thr-Gly-Ser-Gly-Thr-Pro-NH2 (H-VLGKLSQELHKLQTYPRTNTGSGTP-NH2) [Compound 18, linear partial calcitonin peptide, comparison for Compound 2, reference compound] |  | Bone resorption inhibitory activity (% inhibition) ([1]; compound concentration 10^-8 M): 15% |
| Compound 8: SEQ ID NO:8; cyclic peptide Compound 16 condensed to the N-terminus of the Compound 24 peptide (GNWHGTAPDGLGSLTEVLAKLAAYPRTNT[βAla]SGTP-NH2; lactam (positions not given here); not fully specified (bridges); also: cyclic peptide Compound 16 condensed at N-terminus) | 39 |  |
| Compound 1: SEQ ID NO:1; cyclic peptide Compound 15 condensed to the N-terminus of the Compound 17 peptide (GNWHGTAPDWLGKLSQELHKLQTYPRTNTGSGTP-NH2; lactam N-9) |  | Bone resorption inhibitory activity (% inhibition) ([1]; compound concentration 10^-7 M): 61% |
| Compound 10: SEQ ID NO:10; cyclic peptide Compound 16 condensed to the N-terminus of the Compound 26 peptide (GNWHGTAPDGLGSLT[Gla]VLAKLAEYPRTNTGSGTP-NH2; lactam (positions not given here); not fully specified (bridges); also: cyclic peptide Compound 16 condensed at N-terminus) | 27 |  |
| Compound 11: SEQ ID NO:11; cyclic peptide Compound 16 condensed to the N-terminus of the Compound 27 peptide (GNWHGTAPDGLGSLTEVLAKLA[Gla]YPRTNTGSGTP-NH2; lactam (positions not given here); not fully specified (bridges); also: cyclic peptide Compound 16 condensed at N-terminus) |  | Bone resorption inhibitory activity (% inhibition) ([1]; compound concentration 10^-7 M): 42% |
